Laboratory results published in US8575091B1, “Amylin analogues and pharmaceutical compositions thereof” (Novo Nordisk A/S, priority 2012, dated 2013).
Numbered stars: 1 amine (or outer) side, 2 acyl side, 3 side chain; on linkers, the order of the positions; unused ones are H or OH. Bridge positions count the residues as written; N and C are the ends. Side chains are listed from the residue outwards. Peptide text beside a SMILES is read from it. * marks the point of attachment. C20 diacid = O=C(O)CCCCCCCCCCCCCCCCCCC(=O)*; γGlu = O=C(O)[C@H](CCC(=O)[*:2])N[*:1]; AEEA = NCCOCCOCC(=O)O

Molecular target: T1, rat amylin receptor (Rattus norvegicus, UniProt P32214+Q9JJ73)
T1 construct: expressed in transfected cells; host or cells: BHK tk'ts 13 (transient, FuGENE 6), membranes
T1 sequence (P32214 25-479 isoform P32214-2 limits assumed): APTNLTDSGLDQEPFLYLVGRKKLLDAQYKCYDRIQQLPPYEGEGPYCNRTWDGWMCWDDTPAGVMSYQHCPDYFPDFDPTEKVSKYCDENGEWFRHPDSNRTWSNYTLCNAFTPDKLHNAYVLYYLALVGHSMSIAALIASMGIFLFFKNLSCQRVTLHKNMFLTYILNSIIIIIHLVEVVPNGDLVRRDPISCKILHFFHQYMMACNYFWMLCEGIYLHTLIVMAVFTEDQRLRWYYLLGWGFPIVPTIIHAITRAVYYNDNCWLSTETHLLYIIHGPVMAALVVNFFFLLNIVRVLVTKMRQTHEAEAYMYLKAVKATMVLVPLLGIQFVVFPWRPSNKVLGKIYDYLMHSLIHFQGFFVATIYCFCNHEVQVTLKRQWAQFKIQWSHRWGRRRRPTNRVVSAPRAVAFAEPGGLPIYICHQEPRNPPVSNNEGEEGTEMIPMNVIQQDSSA
T1 sequence (Q9JJ73 23-147 partner): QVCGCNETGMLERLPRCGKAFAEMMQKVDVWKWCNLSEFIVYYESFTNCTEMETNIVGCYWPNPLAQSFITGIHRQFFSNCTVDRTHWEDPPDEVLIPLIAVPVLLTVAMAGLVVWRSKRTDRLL
Test: Assay (VI) binding to the rat amylin receptor
Conditions: rCTR bind IC50 divided by rAmylin-R bind IC50
Protocol: Assay (VI)—Determination of the Binding to the Rat Amylin Receptor
The assay was performed as described above (Assay (V)—Determination of binding to the human amylin receptor) with the exception that we used membranes prepared from BHK tk'ts 13 cells that were transiently transfected with the rat calcitonin receptor rat RAMP 3 at an equimolar ratio […]. The BHK tk'ts 13 cells were transiently transfected with rat calcitonin receptor using FuGENE® 6 (Roche), according to the manufacturer's recommendations. Cells were grown in DMEM with 10% FBS and 1% Pen/Strep. Approximately 48 hours after transfection, the cells were harvested and membranes were prepared.

Row | Ratio rCT/rAmylin binding (Table 7b) | Ratio rCT/rAmylin binding (Table 7c) | Ratio rCT/rAmylin binding | SMILES
1 | 87.0 | 87.0 | 87.0 | CC[C@H](C)[C@H](NC(=O)[C@H](C)NC(=O)CNC(=O)[C@H](Cc1ccccc1)NC(=O)[C@H](CC(N)=O)NC(=O)[C@@H]1CCCN1C(=O)[C@H](CO)NC(=O)[C@H](CO)NC(=O)[C@H](Cc1c[nH]cn1)NC(=O)[C@H](CCCNC(=N)N)NC(=O)[C@H](CC(C)C)NC(=O)[C@H](Cc1ccccc1)NC(=O)[C@H](CCCNC(=N)N)NC(=O)[C@H](C)NC(=O)[C@H](CC(C)C)NC(=O)[C@H](CCCNC(=N)N)NC(=O)[C@H](CCC(N)=O)NC(=O)[C@@H](NC(=O)[C@H](C)NC(=O)[C@@H]1CSSC[C@H](NC(=O)[C@@H](N)CCCCNC(=O)COCCOCCNC(=O)CC[C@H](NC(=O)CCCCCCCCCCCCCCCCCCC(=O)O)C(=O)O)C(=O)N[C@@H](CC(N)=O)C(=O)N[C@@H]([C@@H](C)O)C(=O)N[C@@H](C)C(=O)N[C@@H]([C@@H](C)O)C(=O)N1)[C@@H](C)O)C(=O)N1CCC[C@H]1C(=O)N[C@@H](CO)C(=O)N[C@@H](CO)C(=O)N[C@H](C(=O)N[C@@H](CC(N)=O)C(=O)N[C@H](C(=O)NCC(=O)N[C@@H](CO)C(=O)N[C@@H](CC(N)=O)C(=O)N[C@H](C(=O)N[C@@H](Cc1ccc(O)cc1)C(N)=O)[C@@H](C)O)C(C)C)[C@@H](C)O [Example 82] (H-K([AEEA-γGlu-C20 diacid])CNTATCATQRLARFLRHSSPNFGAIPSSTNVGSNTY-NH2; disulfide 2-7 (inferred); N-terminus and C-terminus assumed)
2 | 54.0 | 54.0 | 54.0 | CC[C@H](C)[C@H](NC(=O)[C@H](C)NC(=O)CNC(=O)[C@H](Cc1ccccc1)NC(=O)[C@H](CC(N)=O)NC(=O)[C@@H]1CCCN1C(=O)[C@H](CO)NC(=O)[C@H](CO)NC(=O)[C@H](Cc1c[nH]cn1)NC(=O)[C@H](CCCNC(=N)N)NC(=O)[C@H](CC(C)C)NC(=O)[C@H](Cc1ccccc1)NC(=O)[C@H](CC(N)=O)NC(=O)[C@H](C)NC(=O)[C@H](CC(C)C)NC(=O)[C@H](CCCNC(=N)N)NC(=O)[C@H](CCC(N)=O)NC(=O)[C@@H](NC(=O)[C@H](C)NC(=O)[C@@H]1CSSC[C@H](NC(=O)[C@@H](N)CCCCNC(=O)COCCOCCNC(=O)CC[C@H](NC(=O)CCCCCCCCCCCCCCCCCCC(=O)O)C(=O)O)C(=O)N[C@@H](CC(N)=O)C(=O)N[C@@H]([C@@H](C)O)C(=O)N[C@@H](C)C(=O)N[C@@H]([C@@H](C)O)C(=O)N1)[C@@H](C)O)C(=O)N1CCC[C@H]1C(=O)N[C@@H](CO)C(=O)N[C@@H](CO)C(=O)N[C@H](C(=O)N[C@@H](CC(N)=O)C(=O)N[C@H](C(=O)NCC(=O)N[C@@H](CO)C(=O)N[C@@H](CC(N)=O)C(=O)N[C@H](C(=O)N[C@@H](Cc1ccc(O)cc1)C(N)=O)[C@@H](C)O)C(C)C)[C@@H](C)O [Example 41]
